From patent publication US20100010214A1, “LYOPHILIZED PREPARATION OF 1-METHYLCARBAPENEM” (DAIICHI SANKYO COMPANY, LIMITED, priority 2006, published 2010) come the findings set out here.

The series can be described thus: Solubility of compound (I) in water at predetermined pH. The format is physicochemical. As to conditions: water for injection, ice-cold, pH adjusted with HCl/NaOH; solubility increased with decrease in pH. Here is the method: Method for Measuring Solubility of Compound (I):
Compound (I) (in an amount so that concentration of compound (I) in the aqueous solution becomes 300 mg/g) is weighed in a beaker. 15 mL of water for injection cooled to 5° C. is added, and the solution is stirred using a stirrer under ice-cold conditions for 30 minutes. While stirring, adjustment to the predetermined pH is conducted by dropwise addition of 1N hydrochloric acid or 1N sodium hydroxide aqueous solution, and the pH is maintained. After stirring is completed, a filtration filter (for example, Ekicrodisc 0.45 μm HT-Tuffryn, Gelman Science Japan, Ltd.) is used for filtration, and the amount of compound (I) in the filtrate is measured by the quantitative HPLC method which is similar to Test Example 1 described later, and thus solubility of compound (I) is obtained.

As for `C[C@@H](O)[C@H]1C(=O)N2C(C(=O)O)=C(S[C@H]3C[C@@H](C(=O)N4CC[C@H](NC(=O)CNC(=N)N)C4)N(C)C3)[C@H](C)[C@H]12` [Compound (I), (1R,5S,6S)-6-[(1R)-1-hydroxyethyl]-1-methyl-2-[(2S,4S)-2-[(3S)-3-(2-guanidinoacetylamino)pyrrolidin-1-ylcarbonyl]-1-methylpyrrolidin-4-ylthio]-1-carbapen-2-em-3-carboxylic acid], the Solubility in water entry is recorded as “solubility sufficient for the production of the preparation at pH 7 or lower”.
